How the values were obtained:
FMO I = target: T1, FMO I (Homo sapiens, UniProt Q01740); experiment: sulfoxide formation by microsomes of cells expressing the recombinant enzyme; type: cell-based
T1 sequence (Q01740 2-532): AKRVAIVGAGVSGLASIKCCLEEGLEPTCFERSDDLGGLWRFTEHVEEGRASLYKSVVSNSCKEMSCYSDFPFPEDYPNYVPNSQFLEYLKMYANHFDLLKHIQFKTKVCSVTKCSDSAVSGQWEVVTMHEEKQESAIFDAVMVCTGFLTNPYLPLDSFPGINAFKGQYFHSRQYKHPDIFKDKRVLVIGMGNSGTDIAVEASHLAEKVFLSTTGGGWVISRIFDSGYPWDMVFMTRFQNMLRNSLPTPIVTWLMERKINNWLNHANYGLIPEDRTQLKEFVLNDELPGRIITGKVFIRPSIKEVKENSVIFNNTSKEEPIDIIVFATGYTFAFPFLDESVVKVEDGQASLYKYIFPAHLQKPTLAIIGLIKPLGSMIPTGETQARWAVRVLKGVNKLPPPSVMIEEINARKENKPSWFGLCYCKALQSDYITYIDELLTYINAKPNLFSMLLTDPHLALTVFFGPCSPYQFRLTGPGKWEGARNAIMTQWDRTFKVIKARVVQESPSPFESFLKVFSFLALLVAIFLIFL

CYP 1A1 = target: T2, CYP 1A1 (Homo sapiens, UniProt P04798); experiment: as above; type: cell-based
T2 sequence (P04798 1-512): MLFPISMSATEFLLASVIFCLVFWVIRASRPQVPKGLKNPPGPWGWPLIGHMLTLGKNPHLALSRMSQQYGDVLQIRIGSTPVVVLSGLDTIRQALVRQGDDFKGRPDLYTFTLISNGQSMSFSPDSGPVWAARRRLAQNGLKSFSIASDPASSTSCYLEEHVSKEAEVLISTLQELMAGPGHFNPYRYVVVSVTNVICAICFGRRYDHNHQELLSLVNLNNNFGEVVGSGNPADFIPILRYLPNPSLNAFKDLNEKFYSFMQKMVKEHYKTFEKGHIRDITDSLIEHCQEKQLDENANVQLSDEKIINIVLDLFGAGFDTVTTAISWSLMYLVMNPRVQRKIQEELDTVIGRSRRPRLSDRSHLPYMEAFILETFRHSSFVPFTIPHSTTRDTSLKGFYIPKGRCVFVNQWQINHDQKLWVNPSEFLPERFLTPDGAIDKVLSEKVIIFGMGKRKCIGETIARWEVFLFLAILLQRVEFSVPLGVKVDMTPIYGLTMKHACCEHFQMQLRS

`COP(=S)(OC)Oc1ccc(SC)c(C)c1` [fenthion, O,O-dimethyl-O-(4-methylmercapto)-3-methylphenylthio-phosphate] was tested, and the “sulfoxide formation by microsomes of cells expressing the recombinant enzyme” value (FMO I) was 62.4 nmol/min/mg protein and the “sulfoxide formation by microsomes of cells expressing the recombinant enzyme” value (CYP 1A1) was 3.6 nmol/min/mg protein.
